# According to patent US10889611B2, “Sialyltransferase inhibitors and uses thereof” (Academia Sinica, priority 2015, dated 2021):
# Read-outs that look alike come from different tables or passages of the source. Marks after values point to notes of the source that are not given here.
# How the values were obtained:
# [1] = target: T1, α2,3(N)-sialyltransferase ST3GALIII (Rattus norvegicus, UniProt Q02734); assay: Sialyltransferase activity assay, ST3GALIII; format: biochemical; conditions: α2,3-N-link
# T1 construct: purchased Calbiochem
# T1 sequence (Q02734 1-374): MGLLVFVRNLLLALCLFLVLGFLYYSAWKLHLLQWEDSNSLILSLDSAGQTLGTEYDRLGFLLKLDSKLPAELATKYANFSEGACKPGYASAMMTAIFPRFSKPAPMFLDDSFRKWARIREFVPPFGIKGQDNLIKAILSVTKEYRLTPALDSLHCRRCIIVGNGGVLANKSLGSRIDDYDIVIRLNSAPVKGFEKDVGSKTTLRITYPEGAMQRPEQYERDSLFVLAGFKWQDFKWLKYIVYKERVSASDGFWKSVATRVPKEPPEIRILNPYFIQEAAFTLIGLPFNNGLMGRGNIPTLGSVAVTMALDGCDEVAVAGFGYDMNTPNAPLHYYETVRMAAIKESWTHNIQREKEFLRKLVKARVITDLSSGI
# [2] = target: T2, α2,3(O)-sialyltransferase ST3GALI (Rattus norvegicus, UniProt Q6H8N0); assay: Sialyltransferase inhibition assay, ST3GALI (reverse-phase HPLC); format: biochemical; conditions: for inhibition at 500 µM: measured at 500 μM
# T2 construct: purchased Calbiochem
# T2 sequence (Q6H8N0 1-340): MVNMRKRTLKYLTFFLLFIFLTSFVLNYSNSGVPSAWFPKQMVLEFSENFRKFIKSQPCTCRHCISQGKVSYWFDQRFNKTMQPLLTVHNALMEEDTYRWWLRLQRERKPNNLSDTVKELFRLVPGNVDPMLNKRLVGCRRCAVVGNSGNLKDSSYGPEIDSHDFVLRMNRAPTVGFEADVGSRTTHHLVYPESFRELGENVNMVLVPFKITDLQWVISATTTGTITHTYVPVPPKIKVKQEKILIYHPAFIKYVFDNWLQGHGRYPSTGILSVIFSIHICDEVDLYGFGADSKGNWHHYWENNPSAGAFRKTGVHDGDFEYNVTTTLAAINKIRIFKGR
# Experimental: (§1) The enzymes analyzed in the present study included rat ST3Gal(I), rat ST3Gal(III), and human ST6Gal(I). Rat ST3Gal(I) and rat ST3Gal(Ill), were purchased from Calbiochem®, while human ST6Gal(I) was purchased from RnDSystems.com.
# (§2) Sialyltransferase inhibition assay […] was performed as follows: Sialyltransferase activity was determined by measuring the level of the end product of sialylated saccharides with reverse-phase HPLC. The assay mixtures contained the following components: 200 mM MES buffer; 100 mM NaCl; 0.5 mM EDTA; 0.01% Triton X-100; 1.4 mU ST3GALI; 2.5 mM T-antigen; 1 mM CMP-Neu5Ac and different concentration of Sialyltransferase inhibitors to a total volume of 50 μl. The assay mixture was incubated at 37° C. for 15 mins and then quenched by heating up to 101′C for 10 mins. The sialylated product was resolved by reversed-phase HPLC. Kinetic data were obtained by fitting the initial rate data to the nonlinear regression equation.
# (§3) Effects of the present compounds on the activity of sialyltransferase, including α2,3(N)-sialyltransferase ST3GALIII, α2,6(N)-sialyltransferases ST6GALI, and α2,3(O)-sialyltransferase ST3GALI, were determined in accordance with procedures described in the “Materials and Methods” section, and results are summarized in Table 1.
# [3] = target: T3, α2,6(N)-sialyltransferases ST6GALI (Homo sapiens, UniProt P15907); assay: Sialyltransferase inhibition assay, ST6GALI (reverse-phase HPLC); format: biochemical; conditions: for IC50: α2,6-N-link
# T3 construct: purchased RnDSystems.com (R&D Systems)
# T3 sequence (P15907 1-406): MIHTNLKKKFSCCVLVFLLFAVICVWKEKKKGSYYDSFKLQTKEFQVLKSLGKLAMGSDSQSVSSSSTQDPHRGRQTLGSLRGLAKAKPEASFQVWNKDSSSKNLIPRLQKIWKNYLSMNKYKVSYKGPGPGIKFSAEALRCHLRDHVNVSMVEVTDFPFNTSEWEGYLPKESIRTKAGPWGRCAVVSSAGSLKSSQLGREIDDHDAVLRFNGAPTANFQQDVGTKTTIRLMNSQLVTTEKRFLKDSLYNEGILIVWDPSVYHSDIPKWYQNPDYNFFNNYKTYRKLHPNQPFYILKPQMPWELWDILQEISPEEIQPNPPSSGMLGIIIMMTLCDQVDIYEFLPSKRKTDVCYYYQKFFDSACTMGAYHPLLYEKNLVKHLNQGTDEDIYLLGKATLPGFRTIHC
# Experimental: as §1
# as §2, with “mU ST6GALI; 25 μM Galβ1-4GlcNAc;” for “mU ST3GALI; 2.5 mM T-antigen;”, “to 101° C.” for “to 101′C”, “product is” for “product was”, “resolved with” for “resolved by”
# as §3
# [4] = target: T1, α2,3(N)-sialyltransferase ST3GALIII; assay: Sialyltransferase activity assay, ST3GALIII; format: biochemical
# Experimental: as §1, §2
# as §2, with “mU ST6GALI; 25 μM Galβ1-4GlcNAc;” for “mU ST3GALI; 2.5 mM T-antigen;”, “to 101° C.” for “to 101′C”, “product is” for “product was”, “resolved with” for “resolved by”
# as §3
# MDA-MB-231 cells = assay: Transwell migration assay, breast cancer cells; format: cell-based, human
# Description: Migration assays were done using a transwell, in which a polycarbonate filter pre-coated with Matrigel (8-μm pores, Millicell; Millipore, Billerica, Mass.) was inserted therein. […] Cells that had migrated to the underside of the inserted filter were stained with hematoxylin solution. The cells in the upper side of the inserted membrane were rubbed with a cotton swab. The migrated cells on the underside were pictured in a 200× magnification field and quantified.
# [5] = tested on: metastatic melanoma (B16-F10/Luc cells); assay: Metastatic melanoma-bearing C57BL mice; format: in vivo
# Experimental: (§4) Six C57BL mice (3-6 weeks old) were subcutaneously or intravenously injected with 5×10^5 primary melanoma cells (i.e., B16-F10/Luc cells) on day 0 and allowed the tumor to grow for 7 days to create primary or metastatic melanoma model. Then, the test compound (e.g., FCW393, 10 mg/Kg, i.p.) was administered by intraperitoneal injection at the interval of 3 times per week, until day 26 in each animal model. Tumor sizes were measured using calipers at designated days, and tumor volume was calculated using the formula: volume=width^2×length×0.52. The average body weight (BW) of the animals was measured daily, and the concentration of the test compound(s) (i.e., FCW393) in i.p. injection was adjusted proportionally to the BW respectively at the indicated dosage and time. After treatment, mice were sacrified and their white blood cells (WBC), red blood cells (RBC), platelets (PLT), hemoglobin (HGB), hematocrit (HCT), mean corpuscular volume (MCV), mean corpuscular hemoglobin (MCH), and mean corpuscular hemoglobin concentration (MCHC) were respectively determined; their weights of lymph nodes, thymus, and spleen were measured; as well as the levels of aspartate aminotransferase (AST), analine aminotransferase (ALT), albumin, triglyceride, blood urea nitrogen (BUN), creatinine, and uric acid were measured.
# [6] = tested on: primary melanoma cells (B16-F10/Luc cells); assay: Primary melanoma-bearing C57BL mice; format: in vivo
# Experimental: as §4
# In this example, effects of FCW393 (or compound 16) on animals implanted with primary melanoma cells were investigated, in which the body weight; the size of the tumor; the respective weights of lymph nodes, thymus, and spleen; the respective functions of liver, kidney, and vascular system; as well as the levels of inflammation and/or stress markers were determined. Results are illustrated in FIGS. 8-15.
# [7] = read-out: ST3GALI inhibition percentage
structure (smiles),measurement,setting,value
"C[C@H](CCC(=O)OCCOCCOCCOCCN=[N+]=[N-])C1CC[C@H]2[C@@H]3CC[C@@H]4C[C@H](OC(=O)[C@H](CC(=O)O)Nc5ccc([N+](=O)[O-])c6nonc56)CC[C@]4(C)[C@H]3CC[C@]12C (stereo partly drawn) [Compound 4, (3S)-4-(((3R,5R,8R,9S,10S,13R,14S)-17-((R)-1-azido-13-oxo-3,6,9,12-tetraoxaheptadecan-6-yl)-10,13-dimethylhexadecahydro-1H-cyclopenta[a]phenanthren-3-yl)oxy)-3-((7-nitrobenzo[c][1,2,5]oxadiazol-4-yl)amino)-4-oxobutanoic acid]",IC50,[1]; IC50 (μM) ST3GALIII,1.01 ± 0.07 µM
same,inhibition at 500 µM,[2]; [7],0%
same,inhibition at 1000 µM,"[2]; measured at 1 mM, read-out: ST3GALI inhibition percentage",50%
same,selectivity ratio ST3GALI/ST6GALI,[3],>102
same,IC50,[3]; IC50 (μM) ST6GALI,4.9 ± 0.08 µM
same,selectivity ratio ST3GALI/ST3GALIII,"[4]; calculated based on the concentration, 500 μM, of ST inhibitor used toward α2,3-O-ST3GALI, listed as 4 (FCW66)",>495^d
same,selectivity ratio ST3GALI/ST3GALIII,"[4]; calculated based on the concentration, 1 mM, of ST inhibitor used toward α2,3-O-ST3GALI, listed as 4 (FCW66)",(≤990)^e
same,migration of MDA-MD-231 cells,"MDA-MB-231 cells; 20 μM, FIG. 1",inhibited the migration
same,IC50,"MDA-MB-231 cells; Homo sapiens, MDA-MB-231, breast cancer cells treated with 2-30 μM, transwell, 16 hours, read-out: IC50 on migration",12 ± 0.13 µM
"C[C@H](CCC(=O)OCCOCCOCCOCCOCCN=[N+]=[N-])C1CC[C@H]2[C@@H]3CC[C@@H]4C[C@H](OC(=O)[C@H](CC(=O)O)Nc5ccc([N+](=O)[O-])c6nonc56)CC[C@]4(C)[C@H]3CC[C@]12C (stereo partly drawn) [Compound 5, (3S)-4-(((3R,5R,8R,9S,10S,13R,14S)-17-((R)-1-azido-16-oxo-3,6,9,12,15-pentaoxaicosan-19-yl)-10,13-dimethylhexadecahydro-1H-cyclopenta[a]phenanthren-3-yl)oxy)-3-((7-nitrobenzo[c][1,2,5]oxadiazol-4-yl)amino)-4-oxobutanoic acid]",IC50,[1]; IC50 (μM) ST3GALIII,0.97 ± 0.14 µM
same,inhibition at 500 µM,[2]; [7],0%
same,selectivity ratio ST3GALI/ST6GALI,[3],>99
same,IC50,[3]; IC50 (μM) ST6GALI,5.03 ± 0.2 µM
same,selectivity ratio ST3GALI/ST3GALIII,"[4]; calculated based on the concentration, 500 μM, of ST inhibitor used toward α2,3-O-ST3GALI",>516^d
"C[C@H](CCC(=O)OCCOCCOCCN=[N+]=[N-])C1CCC2C3CC[C@@H]4C[C@H](NC(=O)[C@H](CC(=O)O)Nc5ccc([N+](=O)[O-])c6nonc56)CC[C@]4(C)C3CC[C@@]21C (stereo partly drawn) [Compound 16, (3S)-4-(((3R,5R,10S,13R)-17-((R)-5-(2-(2-(2-azidoethoxy)ethoxy)ethoxy)-5-oxopentan-2-yl)-10,13-dimethylhexadecahydro-1H-cyclopenta[a]phenanthren-3-yl)amino)-3-((7-nitrobenzo[c][1,2,5]oxadiazol-4-yl)amino)-4-oxobutanoic acid]","weight of lymph node, thymus, or spleen",[5]; FIG. 13,did not affect
same,"levels of WBC, RBC, platelets, HGB, HCT, MCV, MCH, and MCHC",[5]; FIG. 14,nor did it possess any significant effects
same,level of inflammation marker or stress marker,[5]; FIG. 15,did not affect
same,growth of tumor (bioluminescence IVIS images),"[5]; days 7 and 14, FIG. 12, panels A and B",suppress the growth of tumor
same,melting point,,80 to 81 °C
same,body weights of the test animals,"[6]; 10 mg/Kg, i.p.",without significantly affecting
same,tumor volume as compared with that of the control animal,"[6]; 10 mg/Kg, i.p., 3 times per week",about 1/3
same,"weight of lymph node, thymus, or spleen",[6]; FIG. 9,no effects
same,"counts of white blood cells (WBC), increase","[6]; FIG. 10, panel A",2 fold
same,"levels of RBC, PLT, HGB, HCT, MCV, MCH and MCHC","[6]; FIG. 10, panels B to H",no effects
same,level of analine aminotransferase (ALT),[6]; FIG. 11,did not affect
same,level of aspartate aminotransferase (AST),[6]; FIG. 11,reduce
same,level of inflammation marker (albumin),"[6]; FIG. 11, panel C",no effect
same,level of the stress marker (uric acid),"[6]; FIG. 11, panel G",slightly increased
"C[C@H](CCC(=O)O)[C@H]1CC[C@H]2[C@@H]3CC[C@@H]4C[C@H](OC(=O)[C@@H](N)CC(=O)O)CC[C@]4(C)[C@H]3CC[C@]12C [Lith-O-Asp, reference compound]",IC50,[1]; read-out: IC50 (μM) ST3GALIII,12 µM
same,IC50,"[2]; α2,3-O-link",39 ± 1.26 µM
same,selectivity ratio ST3GALI/ST6GALI,[3],3
same,IC50,[3]; read-out: IC50 (μM) ST6GALI,15.78 ± 0.13 µM
same,selectivity ratio ST3GALI/ST3GALIII,[4]; comparative controls with measured ST3GALI IC50,3
